# Reference: US9114149B2, “[CU(thp)4]n[X]-n compounds for the treatment of a broad range of human solid tumors, including refractory tumors” (Universita Degli Studi Di Padova, priority 2011, dated 2015)
# Assays:
# H157 = assay: MTT cytotoxicity, H157 (lung); type: cell-based, human; conditions: MTT test, 72 hrs
# Source text: (§1) The in vitro antitumor activity of CP had been deeply evaluated in several human cancer cell lines by in vitro cytotoxicity assays. CP cytotoxicity has been detected in a large panel of human cell lines derived from a wide variety of solid tumors, including refractory tumors. In Table 1, the cytotoxicity parameters IC50 (that is the median growth inhibitory concentrations calculated from dose-survival curves via MTT test) are tabulated.
# (§2) Cell lines representative of lung (H157, U1810, U1285, Calu-1), pancreas (MIA PaCa-2, BxPC-3, AsPC-1, Capan-1), liver (Huh-7, Hep 3B, SK-Hep-1), oesophagus (OE33, OE21), oesophagus/gastric cardia (OE19), stomach (BGC-823, AGS), colon (HCT-116, T84, COLO 205), breast (MDA-MB-231, SK-BR-3), cervix (CaSki, C-33 A) ovarian (A2780, SK-OV-3, IGROV1), prostate (LnCaP, PC-3) cancers along with melanoma (MEWO, G361, C-32), neuroblastoma (SH-SY5Y, SK-N-AS, IMR-32) and osteosarcoma (U-2 OS, MG-63) have been treated with increasing concentration of CP for 72 hrs.
# Calu-1 = assay: MTT cytotoxicity, Calu-1 (lung); type: cell-based, human; conditions: MTT test, 72 hrs
# Source text: as §1, §2
# MIA PaCa-2 = assay: MTT cytotoxicity, MIA PaCa-2 (pancreas); type: cell-based, human; conditions: MTT test, 72 hrs
# Source text: as §1, §2
# BxPC-3 = assay: MTT cytotoxicity, BxPC-3 (pancreas); type: cell-based, human; conditions: MTT test, 72 hrs
# Source text: as §1, §2
# AsPC-1 = assay: MTT cytotoxicity, AsPC-1 (pancreas); type: cell-based, human; conditions: MTT test, 72 hrs
# Source text: as §1, §2
# Capan-1 = assay: MTT cytotoxicity, Capan-1 (pancreas); type: cell-based, human; conditions: MTT test, 72 hrs
# Source text: as §1, §2
# Huh-7 = assay: MTT cytotoxicity, Huh-7 (liver); type: cell-based, human; conditions: MTT test, 72 hrs
# Source text: as §1, §2
# Hep 3B = assay: MTT cytotoxicity, Hep 3B (liver); type: cell-based, human; conditions: MTT test, 72 hrs
# Source text: as §1, §2
# SK-Hep-1 = assay: MTT cytotoxicity, SK-Hep-1 (liver); type: cell-based, human; conditions: MTT test, 72 hrs
# Source text: as §1, §2
# OE19 = assay: MTT cytotoxicity, OE19 (oesophagus/gastric cardia); type: cell-based, human; conditions: MTT test, 72 hrs
# Source text: as §1, §2
# AGS = assay: MTT cytotoxicity, AGS (stomach); type: cell-based, human; conditions: MTT test, 72 hrs
# Source text: as §1, §2
# HCT-116 = assay: MTT cytotoxicity, HCT-116 (colon); type: cell-based, human; conditions: MTT test, 72 hrs
# Source text: as §1, §2
# T84 = assay: MTT cytotoxicity, T84 (colon); type: cell-based, human; conditions: MTT test, 72 hrs
# Source text: as §1, §2
# COLO 205 = assay: MTT cytotoxicity, COLO 205 (colon); type: cell-based, human; conditions: MTT test, 72 hrs
# Source text: as §1, §2
# MEWO = assay: MTT cytotoxicity, MEWO (skin); type: cell-based, human; conditions: MTT test, 72 hrs
# Source text: as §1, §2
# G361 = assay: MTT cytotoxicity, G361 (skin); type: cell-based, human; conditions: MTT test, 72 hrs
# Source text: as §1, §2
# C-32 = assay: MTT cytotoxicity, C-32 (skin); type: cell-based, human; conditions: MTT test, 72 hrs
# Source text: as §1, §2
# U-2 OS = assay: MTT cytotoxicity, U-2 OS (bone); type: cell-based, human; conditions: MTT test, 72 hrs
# Source text: as §1, §2
# MDA-MB-231 = assay: MTT cytotoxicity, MDA-MB-231 (breast); type: cell-based, human; conditions: MTT test, 72 hrs
# Source text: as §1, §2
# SK-BR-3 = assay: MTT cytotoxicity, SK-BR-3 (breast); type: cell-based, human; conditions: MTT test, 72 hrs
# Source text: as §1, §2
# CaSki = assay: MTT cytotoxicity, CaSki (cervix); type: cell-based, human; conditions: MTT test, 72 hrs
# Source text: as §1, §2
# A2780 = assay: MTT cytotoxicity, A2780 (ovary); type: cell-based, human; conditions: MTT test, 72 hrs
# Source text: as §1, §2
# SK-OV-3 = assay: MTT cytotoxicity, SK-OV-3 (ovary); type: cell-based, human; conditions: MTT test, 72 hrs
# Source text: as §1, §2
# IGROV1 = assay: MTT cytotoxicity, IGROV1 (ovary); type: cell-based, human; conditions: MTT test, 72 hrs
# Source text: as §1, §2
# PC-3 = assay: MTT cytotoxicity, PC-3 (prostate); type: cell-based, human; conditions: MTT test, 72 hrs
# Source text: as §1, §2
# [1] = tested on: human colon adenocarcinoma cells sensitive (HCT-116); assay: Cross resistance MTT test, HCT-116 (OXP sensitive); type: cell-based; conditions: 72 h, probit analysis
# [2] = tested on: human lung (MRC-5) fibroblasts; assay: Cytotoxicity towards human non-tumor cells, MRC-5; type: cell-based; conditions: MRC-5 human lung fibroblasts (non-tumor); MTT test, 72 hrs
# [3] = tested on: human foreskin (HFFF2) fibroblasts; assay: Cytotoxicity towards human non-tumor cells, HFFF2; type: cell-based; conditions: MTT test, 72 hrs
# [4] = tested on: human colon adenocarcinoma cells resistant (HCT-116 OXP) to OXP
# [5] = tested on: CDDP sensitive and resistant human cancer cell lines; conditions: also CDDP resistant cell lines; cited from earlier work
compound,measurement,setting,value
"O=C1[O][Pt]2([NH][C@@H]3CCCC[C@H]3[NH]2)[O]C1=O [OXP, oxaliplatin]",IC50,H157,25.3 ± 0.52 µM
same,IC50,Calu-1,4.23 ± 1.53 µM
same,IC50,MIA PaCa-2,16.8 ± 1.89 µM
same,IC50,BxPC-3,4.15 ± 1.06 µM
same,IC50,AsPC-1,23.2 ± 2.64 µM
same,IC50,Capan-1,3.17 ± 0.97 µM
same,IC50,Huh-7,1.12 ± 1.05 µM
same,IC50,Hep 3B,4.32 ± 1.33 µM
same,IC50,SK-Hep-1,17.8 ± 2.63 µM
same,IC50,OE19,8.76 ± 1.51 µM
same,IC50,AGS,5.32 ± 1.63 µM
same,IC50,HCT-116,0.76 ± 0.58 µM
same,IC50,T84,0.33 ± 0.09 µM
same,IC50,COLO 205,21.1 ± 2.66 µM
same,IC50,MEWO,6.43 ± 1.54 µM
same,IC50,G361,1.14 ± 0.31 µM
same,IC50,C-32,1.12 ± 0.42 µM
same,IC50,U-2 OS,0.72 ± 0.24 µM
same,IC50,MDA-MB-231,4.35 ± 1.07 µM
same,IC50,SK-BR-3,8.98 ± 2.64 µM
same,IC50,CaSki,26.1 ± 3.01 µM
same,IC50,A2780,0.55 ± 0.22 µM
same,IC50,SK-OV-3,1.43 ± 1.03 µM
same,IC50,IGROV1,2.56 ± 2.14 µM
same,IC50,PC-3,5.23 ± 1.62 µM
same,IC50,[1],1.2 ± 0.1 µM
same,IC50,[2],23.1 ± 1.25 µM
same,IC50,[3],25.5 ± 1.65 µM
same,IC50,"[4]; HCT-116 OXP (OXP resistant), MTT test, 72 h, probit analysis",23.3 ± 1 µM
same,R.F. (Resistant factor),[4]; IC50 resistant/parent line: HCT-116 OXP / HCT-116,19.4
Cc1cc(C)n(C(C(=O)[O][Cu]([PH](CO)(CO)CO)[PH](CO)(CO)CO)n2nc(C)cc2C)n1 [[HC(CO2)(pz^Me2)2]Cu[P(CH2OH)3]2],antitumor activity in vitro,[5],significant antitumor activity in vitro
